According to US20250051293A1, “NOVEL OXADIAZOLE DERIVATIVE AND USE THEREOF” (CELROS BIOTECH, priority 2021, published 2025):
pIC50: −log10 of the molar value.

Legend:
[1] = Cytotoxicity experiment (MTT assay) HT-22; format: cell-based; details: mouse, HT-22 cells
Experimental: HepG2 (human hepatocellular carcinoma) and HT-22 (mouse hippocampal neuronal cell line) were seeded at densities of 1×10^5 or 1.5×10^4 per well in a 48-well plate and incubated for at least 12 hours, then treated with compounds of Example 1 and Example 2 at various concentrations (0 nM, 1 nM, 10 nM, 100 nM, 1000 nM, 10000 nM, 100000 nM, and 1000000 nM) and incubated for 24 hours. MTT solution (Thiazolyl Blue Tetrazolium Bromide 2 mg/ml) was subsequently added at 30 μl per well. After incubation for 4 hours, the culture medium containing the MTT solution was removed and 300 μl of DMSO was added to dissolve the MTT-formazan. 100 μl of the solution in each well was transferred to a 96-well plate and the absorbance was measured at 570 nm. IC50 values were calculated with Graph-Pad Prism 5 (GraphPad Software). The cell viability of the groups treated with the compounds of Example 1 and Example 2 at each concentration was determined relative to control group in which HepG2 cells were treated with DMSO alone, in at least five replicates.

human NOX4 = molecular target: T1, human NOX4 (Homo sapiens, UniProt Q9NPH5); test: Lucigenin chemiluminescence assay, drosophila membranes expressing hNOX4; format: biochemical; details: average of three repeats
T1 construct: made in house; host or cells: transgenic Drosophila (Da-GAL4 driven UAS-hNOX4, dDuox RNAi background); membranes from homogenized flies
T1 sequence (Q9NPH5 1-578): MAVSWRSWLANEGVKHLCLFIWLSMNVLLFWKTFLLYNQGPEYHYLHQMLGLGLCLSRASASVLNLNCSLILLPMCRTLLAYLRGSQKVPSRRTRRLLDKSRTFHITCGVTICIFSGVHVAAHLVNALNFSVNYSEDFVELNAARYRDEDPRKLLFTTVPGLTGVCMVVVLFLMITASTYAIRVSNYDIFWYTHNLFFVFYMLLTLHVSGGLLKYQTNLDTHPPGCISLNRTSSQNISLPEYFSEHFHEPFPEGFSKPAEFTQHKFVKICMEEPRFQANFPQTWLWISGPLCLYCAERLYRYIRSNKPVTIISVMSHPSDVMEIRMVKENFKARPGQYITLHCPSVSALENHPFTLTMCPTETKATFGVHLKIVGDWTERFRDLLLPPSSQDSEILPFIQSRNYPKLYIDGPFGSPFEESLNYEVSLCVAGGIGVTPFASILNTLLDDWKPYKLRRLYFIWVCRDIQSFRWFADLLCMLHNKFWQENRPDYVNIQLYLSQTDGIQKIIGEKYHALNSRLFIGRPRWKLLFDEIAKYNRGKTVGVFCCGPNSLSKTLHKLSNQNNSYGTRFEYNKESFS
Experimental: Human NOX isozymes were provided from transgenic flies expressing human NOX isozymes from the daughterless (Da)-GAL4 promoter. The genotype of each fly line is shown below. • human NOX2:UAS-hNOX2/UAS-dDuox-RNAi; Da-GAL4/+ • human NOX4:UAS-hNOX4/UAS-dDuox-RNAi; Da-GAL4/+
Transgenic flies were homogenized in PBS containing protease inhibitors (aprotinin, leupeptin) to obtain drosophila membranes of each NOX isozyme. The membranes were incubated with the compounds (100 μM, 10 μM, 1 μM, 0.1 μM, 0.01 μM, 0.001 μM, and 0 μM) for 10 minutes in a shaker. Then, to the membranes, a mixture of 500 μM NADPH (R-nicotinamide adenine dinucleotide 2′-phosphate reduced tetrasodium salt hydrate; Sigma-Aldrich) and 400 μM lucigenin (N,N′-dimethyl-9,9-biacridinium dinitrate; Sigma-Aldrich) in 1× HEPES (4-(2-hydroxyethyl)-1-piperazineethanesulfonic acid) buffer was added. Lucigenin chemiluminescence was detected at 1-minute intervals for 10 minutes using a multimode microplate reader (SpectraMax iD3, Molecular Devices). IC50 values were calculated with Graph-Pad Prism 5 (GraphPad Software).
The lucigenin chemiluminescence assay was performed with drosophila membranes expressing hNOX1, hNOX2, and hNOX4. The assay was repeated three times and the IC50 values were averaged.

Tg−APP/PS1 animal models = test: Tg-APPswe/PS1dE9 Alzheimer's animal model; format: in vivo, mice
Experimental: The Tg−APP/PS1 animal models were used to determine the effect of compounds of Examples according to The present disclosure on Alzheimer's disease. This animal models show amyloid plaque deposition as early as 6.5 months and severe cognitive impairment at 6 to 8 months. The Tg−APP/PS1 animal models were administered with vehicle or the Example compound (i.e., Example 2 was used) at 30 mg/kg or 10 mg/kg every other day from 6.5 to 8 months. All behavioral testing occurred between 7.5 and 8 months, and brain tissues for biopsy were obtained by perfusion after behavioral testing. To confirm amyloid beta plaques, the brain tissues obtained in the above part (1)_1) were incubated in 1% Thioflavin-S solution for 8 to 20 minutes and washed with ethanol and distilled water. The stained tissues were sectioned and the number of plaques or stained areas were quantified. To confirm the changes in astrocytes and microglia by administration of oxadiazole derivative compounds, immunostaining was performed using GFAP antibody, a marker for astrocytes, and Iba1 antibody, a marker for microglia. The novel object recognition (NOR) and novel location recognition (NLR) tests are behavioral assessments that evaluate memory based on the disparity in search time between a novel object or an object relocated to a new position compared to a familiar object. Each experimental animal was placed in a square box with two identical objects and allowed to familiarize for 10 minutes (familiarization #1). Ten minutes after the first familiarization was completed, the objects used in the first familiarization were returned to their original position and subjected to a second familiarization (familiarization #2). After 2 hours, only one of the objects used in familiarization was replaced with a novel object and placed in the same position and the exploration time of the familiar and novel objects (2 h NOR) was determined. After 15 minutes, the familiar object was repositioned, and the exploration time of both objects was checked (NLR). After 22 hours (24 hours after familiarization), the novel object and the familiar object were placed and the exploration time was determined (24 h NOR). water maze test is frequently used to assess memory functions such as memory formation, consolidation, and retrieval effects by assessing the time it takes for an experimental animal to find a platform beneath the water surface, relying on environmental cues. Therefore, the treatment effect on Alzheimer's disease was confirmed using the model used in the water maze test above. The passive avoidance test is a fear-motivated test mainly used to evaluate short-term or long-term memory in experimental animals. The passive avoidance test evaluates fear memory by utilizing the innate tendency of experimental animals to prefer dark areas and avoid bright areas, delivering an electric shock to the paw upon entry into a dark area, and measuring the time it takes for the animal to re-enter the dark area upon re-exposure to the same environment.

[2] = parietal cortex, piriform cortex, and hippocampus

O=C(Nc1nnc(-c2cccc(Cl)c2)o1)c1cc(F)cc(C(F)(F)F)c1 [Example 1, N-(5-(3-chlorophenyl)-1,3,4-oxadiazol-2-yl)-3-fluoro-5-(trifluoromethyl)benzamide]
IC50 at 24 h [1]: 2000 nM | pIC50 (human NOX4): 6.80

O=C(Nc1nnc(-c2ccccc2)o1)c1ccc(F)c(C(F)(F)F)c1 [Example 2, 4-fluoro-N-(5-phenyl-1,3,4-oxadiazol-2-yl)-3-(trifluoromethyl)benzamide]
IC50 at 24 h [1]: 5500 nM | exploration time for novel objects than familiar objects (2 h NOR) (Tg−APP/PS1 animal models; 30 mg/kg): significantly increase | exploration time for novel objects than familiar objects (24 h NOR) (Tg−APP/PS1 animal models; 30 mg/kg): remarkable increase | exploration time for objects located in a novel location (NLR) (Tg−APP/PS1 animal models; 30 mg/kg): significant increase | amyloid plaque deposition (Thioflavin-S staining) (Tg−APP/PS1 animal models; 30 mg/kg or 10 mg/kg every other day from 6.5 to 8 months): highly significant ameliorative effect | water maze test, time required to locate platform (Tg−APP/PS1 animal models; five consecutive days of training): memory acquisition ability equivalent to wild-type mice | activation of astrocytes (GFAP immunostaining) (Tg−APP/PS1 animal models; [2]): effectively reduced | activation of microglia (Iba1 immunostaining) (Tg−APP/PS1 animal models; [2]): effectively reduced | passive avoidance test, time to enter the dark area (Tg−APP/PS1 animal models; post-shock, 24 to 120 hours): fear memory retention comparable to that of wild-type animals | pIC50 (human NOX4): 6.36
